In US11524938B2, “Aromatic sulfonamide derivatives” (Bayer Pharma Aktiengesellschaft, priority 2016, dated 2022):

Target: T1, human P2X4 (Homo sapiens, UniProt Q99571)
T1 sequence (Q99571 1-388): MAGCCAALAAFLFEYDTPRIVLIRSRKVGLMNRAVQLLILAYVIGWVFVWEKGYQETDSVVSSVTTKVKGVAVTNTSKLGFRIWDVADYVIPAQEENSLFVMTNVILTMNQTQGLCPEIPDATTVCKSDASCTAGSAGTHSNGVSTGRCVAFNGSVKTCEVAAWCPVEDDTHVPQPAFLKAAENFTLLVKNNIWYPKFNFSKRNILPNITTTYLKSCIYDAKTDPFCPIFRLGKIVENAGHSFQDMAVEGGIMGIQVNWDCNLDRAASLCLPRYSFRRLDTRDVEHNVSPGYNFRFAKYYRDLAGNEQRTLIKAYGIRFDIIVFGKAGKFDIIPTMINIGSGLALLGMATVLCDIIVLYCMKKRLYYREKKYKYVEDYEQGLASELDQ
Experiment: Human P2X4 HEK Cell FLIPR Assay
Assay type: cell-based
Conditions: agonist Bz-ATP at EC80; for Emax: HEK293, HEK293 cells, percentage of maximal inhibition, read-out: Human P2X4 HEK Cells (FLIPR Assay) avg Efficacy [%]; for IC50: HEK293 cells, individual values listed where some fall outside detection range
Procedure, shortened: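 HEK293 cells stably expressing human P2X4, Fluo8-AM loaded 30 min at 37° C, then compound 30 min at room temperature (0.5% DMSO, pH 7.4 buffer with 1.8 mM CaCl2). Bz-ATP at its daily-determined EC80 added; calcium fluorescence read over 120 sec; IC50 from peak RFU normalized to agonist control, triplicates.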

SMILES | Emax [%] | IC50 [nM]
N#Cc1cnn(-c2ccc(NC(=O)Cc3cccc(Cl)c3)cc2S(N)(=O)=O)c1 [Example 191, 2-(3-Chlorophenyl)-N-[4-(4-cyano-1H-pyrazol-1-yl)-3-sulfamoylphenyl]acetamide] | 76 | 180
NS(=O)(=O)c1cc(NC(=O)Cc2cccnc2Cl)ccc1-n1cc(Cl)cn1 [Example 89, N-[4-(4-Chloro-1H-pyrazol-1-yl)-3-sulfamoylphenyl]-2-(2-chloropyridin-3-yl)-acetamide] | 83 | 2320
Cc1cnn(-c2ccc(NC(=O)Cc3ccccc3Cl)cc2S(N)(=O)=O)c1 [Example 248, 2-(2-Chlorophenyl)-N-[4-(4-methyl-1H-pyrazol-1-yl)-3-sulfamoylphenyl]acetamide] | 74 | 84
NS(=O)(=O)c1cc(NC(=O)Cc2ccc(F)cc2Cl)ccc1-n1cc(C(F)(F)F)cn1 [Example 127, 2-(2-Chloro-4-fluorophenyl)-N-{3-sulfamoyl-4-[4-(trifluoromethyl)-1H-pyrazol-1-yl]phenyl}acetamide] | 85 | 209
COc1cccc(Cl)c1CC(=O)Nc1ccc(-n2cc(Cl)cn2)c(S(N)(=O)=O)c1 [Example 105, 2-(2-Chloro-6-methoxyphenyl)-N-[4-(4-chloro-1H-pyrazol-1-yl)-3-sulfamoyl-phenyl]acetamide] | 101 | 108
N#Cc1cnn(-c2ccc(NC(=O)Cc3cc(F)c(F)cc3Cl)cc2S(N)(=O)=O)c1 [Example 205, 2-(2-Chloro-4,5-difluorophenyl)-N-[4-(4-cyano-1H-pyrazol-1-yl)-3-sulfamoylphenyl]-acetamide] | 89 | 73
NS(=O)(=O)c1cc(NC(=O)Cc2ccccc2Cl)ccc1-n1ccnc1 [Example 9, 2-(2-Chlorophenyl)-N-[4-(1H-imidazol-1-yl)-3-sulfamoylphenyl]acetamide] | 83 | 7
Cc1cccc(CC(=O)Nc2ccc(-n3cc(C#N)cn3)c(S(N)(=O)=O)c2)c1 [Example 198, N-[4-(4-Cyano-1H-pyrazol-1-yl)-3-sulfamoylphenyl]-2-(3-methylphenyl)acetamide] | 94 | 136
N#Cc1cnn(-c2ccc(NC(=O)Cc3ccccc3OC(F)(F)F)cc2S(N)(=O)=O)c1 [Example 204, N-[4-(4-Cyano-1H-pyrazol-1-yl)-3-sulfamoylphenyl]-2-[2-(trifluoromethoxy)phenyl]-acetamide] | 86 | 72
NS(=O)(=O)c1cc(NC(=O)Cc2c(F)ccc(F)c2Cl)ccc1-n1cc(C(F)(F)F)cn1 [Example 133, 2-(2-Chloro-3,6-difluorophenyl)-N-{3-sulfamoyl-4-[4-(trifluoromethyl)-1H-pyrazol-1-yl]phenyl}acetamide] | 82 | 107
COc1ccc(CC(=O)Nc2ccc(-n3cc(C#N)cn3)c(S(N)(=O)=O)c2)cc1 [Example 196, N-[4-(4-Cyano-1H-pyrazol-1-yl)-3-sulfamoylphenyl]-2-(4-methoxyphenyl)acetamide] | 75 | 164
COc1cccc(Cl)c1CC(=O)Nc1ccc(-n2cc(C#N)cn2)c(S(N)(=O)=O)c1 [Example 216, 2-(2-Chloro-6-methoxyphenyl)-N-[4-(4-cyano-1H-pyrazol-1-yl)-3-sulfamoyl-phenyl]acetamide] | 101 | 96
Cc1ccn(-c2ccc(NC(=O)Cc3ccccc3Cl)cc2S(N)(=O)=O)n1 [Example 273, 2-(2-Chlorophenyl)-N-[4-(3-methyl-1H-pyrazol-1-yl)-3-sulfamoylphenyl]acetamide] | 60 | 35
COc1ncn(-c2ccc(NC(=O)Cc3ccccc3Cl)cc2S(N)(=O)=O)n1 [Example 249, 2-(2-Chlorophenyl)-N-[4-(3-methoxy-1H-1,2,4-triazol-1-yl)-3-sulfamoylphenyl]-acetamide] | 72 | 8460
COc1ccc(CC(=O)Nc2ccc(-n3cc(C#N)cn3)c(S(N)(=O)=O)c2)c(Cl)c1 [Example 210, 2-(2-Chloro-4-methoxyphenyl)-N-[4-(4-cyano-1H-pyrazol-1-yl)-3-sulfamoylphenyl]-acetamide] | 76 | 116
NS(=O)(=O)c1cc(NC(=O)Cc2ccccc2Cl)ccc1-n1ccc(Cl)cc1=O [Example 2, N-[4-(4-Chloro-2-oxopyridin-1(2H)-yl)-3-sulfamoylphenyl]-2-(2-chlorophenyl)-acetamide] | 50 | 19400

Other lines, results leading:

Emax [%] | IC50 [nM] | SMILES
86 | 41 | COc1cncc(-c2ccc(NC(=O)Cc3ccccc3Cl)cc2S(N)(=O)=O)c1 [Example 341, 2-(2-Chlorophenyl)-N-[4-(5-methoxypyridin-3-yl)-3-sulfamoylphenyl]acetamide]
101 | 41 | CC(C)(O)c1cccc(-c2ccc(NC(=O)Cc3ccccc3Cl)cc2S(N)(=O)=O)c1 [Example 342, 2-(2-Chlorophenyl)-N-[3′-(2-hydroxypropan-2-yl)-2-sulfamoylbiphenyl-4-yl]acetamide]
68 | 275 | Cn1nc(-c2ccc(NC(=O)Cc3ccccc3Cl)cc2S(N)(=O)=O)cc1C(C)(C)O [Example 288, 2-(2-Chlorophenyl)-N-{4-[5-(2-hydroxypropan-2-yl)-1-methyl-1H-pyrazol-3-yl]-3-sulfamoylphenyl}acetamide]
50 | > 25000 | NS(=O)(=O)c1cc(NC(=O)Cc2ccccc2Cl)ccc1-n1cc(Cl)c(C(F)(F)F)n1 [Example 541, 2-(2-Chlorophenyl)-N-{4-[4-chloro-3-(trifluoromethyl)-1H-pyrazol-1-yl]-3-sulfamoylphenyl}acetamide]
84 | 122 | NS(=O)(=O)c1cc(NC(=O)Cc2ccccc2Cl)ccc1-n1cc(C(=O)N2CCC(F)(F)C2)cn1 [Example 443, 2-(2-Chlorophenyl)-N-(4-{4-[(3,3-difluoropyrrolidin-1-yl)carbonyl]-1H-pyrazol-1-yl}-3-sulfamoylphenyl)acetamide]
86 | 680 | COc1nc(-c2ccc(NC(=O)Cc3ccccc3Cl)cc2S(N)(=O)=O)cs1 [Example 421, 2-(2-Chlorophenyl)-N-[4-(2-methoxy-1,3-thiazol-4-yl)-3-sulfamoylphenyl]acetamide]
87 | 32 | NS(=O)(=O)c1cc(NC(=O)Cc2ccccc2Cl)cnc1-c1cnn(C(F)F)c1 [Example 297, 2-(2-Chlorophenyl)-N-{6-[1-(difluoromethyl)-1H-pyrazol-4-yl]-5-sulfamoylpyridin-3-yl}acetamide]
91 | 64 | NS(=O)(=O)c1cc(NC(=O)Cc2ccccc2Cl)ccc1-c1cnc(C2CC2)nc1 [Example 308, 2-(2-Chlorophenyl)-N-[4-(2-cyclopropylpyrimidin-5-yl)-3-sulfamoylphenyl]acetamide]
69 | 347 | NS(=O)(=O)c1cc(NC(=O)Cc2ccccc2Cl)cc(Cl)c1-n1cc(C(F)(F)F)cn1 [Example 499, 2-(2-Chlorophenyl)-N-{3-chloro-5-sulfamoyl-4-[4-(trifluoromethyl)-1H-pyrazol-1-yl]phenyl}acetamide]
65 | 73 | NS(=O)(=O)c1cc(NC(=O)Cc2ccccc2C(F)(F)F)ccc1-c1cncc(C(F)(F)F)c1 [Example 304, N-{3-Sulfamoyl-4-[5-(trifluoromethyl)pyridin-3-yl]phenyl}-2-[2-(trifluoromethyl)phenyl]acetamide]
97 | 56 | Cn1cc(-c2ncc(NC(=O)Cc3ccccc3Cl)cc2S(N)(=O)=O)cn1 [Example 302, 2-(2-Chlorophenyl)-N-[6-(1-methyl-1H-pyrazol-4-yl)-5-sulfamoylpyridin-3-yl]acetamide]
97 | 197 | COc1ccc(CC(=O)Nc2ccc(-c3ccc(Cl)nc3)c(S(N)(=O)=O)c2)c(F)c1 [Example 472, N-[4-(6-Chloropyridin-3-yl)-3-sulfamoylphenyl]-2-(2-fluoro-4-methoxyphenyl)acetamide]
77 | – | NS(=O)(=O)c1cc(NC(=O)Cc2ccccc2F)cnc1-n1cc(C(F)(F)F)cn1 [Example 381, 2-(2-Fluorophenyl)-N-{5-sulfamoyl-6-[4-(trifluoromethyl)-1H-pyrazol-1-yl]pyridin-3-yl}acetamide]
95 | 3620 | NS(=O)(=O)c1cc(NC(=O)Cc2cc(C(F)(F)F)ccc2Cl)c(C(F)(F)F)cc1-n1cc(F)cn1 [Example 537, 2-[2-Chloro-5-(trifluoromethyl)phenyl]-N-[4-(4-fluoro-1H-pyrazol-1-yl)-5-sulfamoyl-2-(trifluoromethyl)phenyl]acetamide]
93 | 46 | NS(=O)(=O)c1cc(NC(=O)Cc2ccccc2Cl)ccc1-c1cnn(C2CCCCO2)c1 (stereo not drawn) [Example 345, 2-(2-Chlorophenyl)-N-{3-sulfamoyl-4-[1-(tetrahydro-2H-pyran-2-yl)-1H-pyrazol-4-yl]phenyl}acetamide]
77 | 74 | NS(=O)(=O)c1cc(NC(=O)Cc2cccc(Cl)c2)ccc1-c1cncc(C(F)(F)F)c1 [Example 453, 2-(3-Chlorophenyl)-N-{3-sulfamoyl-4-[5-(trifluoromethyl)pyridin-3-yl]phenyl}acetamide]
